Data: ChEMBL document CHEMBL5321295, “Targeted Degradation of Alpha-Synuclein by Autophagosome-Anchoring Chimera Peptides” (J Med Chem, 2023)
Activity calls are given as the source filed them. The rule behind the calls is not given here.

Experiments:
Alpha-synuclein [1] = target: T1, Alpha-synuclein (Homo sapiens, UniProt P37840); assay: Binding affinity to alpha-synuclein (unknown origin) overexpressed in HEK293T cells assessed as shift in denaturation at 50 uM incubated for 4 hrs followed by heating at 40 to 75 degreeC for 3 mins by CETSA assay; format: cell-based; settings: time 243.0 min
[2] = Chemical stability of compound in cell culture medium at 50 uM measured for 24 hrs by HPLC analysis; format: physicochemical
HEK-293T [3] = assay: Cytotoxicity against wild-type HEK293T cells assessed as cell viability upto 200 uM incubated for 24 hrs by CCK8 assay; format: toxicity, cell-based; settings: human
Alpha-synuclein [4] = target: T1, Alpha-synuclein; assay: Induction of alpha-synuclein (unknown origin) degradation overexpressed in HEK293T cells infected with adenovirus expressing mCherry-EGFP-LC3B incubated for 24 hrs by immunoblot analysis; format: cell-based
HEK-293T [5] = assay: Downregulation of NACA expression in HEK293T cells at 100 uM incubated for 24 hrs by proteomic profiling analysis; format: functional, cell-based; settings: Homo sapiens
HEK-293T [6] = assay: Downregulation of UBE2L3 expression in HEK293T cells at 100 uM incubated for 24 hrs by proteomic profiling analysis; format: functional, cell-based; settings: Homo sapiens
HEK-293T [7] = assay: Downregulation of AKR1B1 expression in HEK293T cells at 100 uM incubated for 24 hrs by proteomic profiling analysis; format: functional, cell-based; settings: Homo sapiens
HEK-293T [8] = assay: Downregulation of MARCKS expression in HEK293T cells at 100 uM incubated for 24 hrs by proteomic profiling analysis; format: functional, cell-based; settings: Homo sapiens
HEK-293T [9] = assay: Downregulation of BANF1 expression in HEK293T cells at 100 uM incubated for 24 hrs by proteomic profiling analysis; format: functional, cell-based; settings: Homo sapiens
HEK-293T [10] = assay: Downregulation of PSMB7 expression in HEK293T cells at 100 uM incubated for 24 hrs by proteomic profiling analysis; format: functional, cell-based; settings: Homo sapiens
HEK-293T [11] = assay: Downregulation of DYNC1I2 expression in HEK293T cells at 100 uM incubated for 24 hrs by proteomic profiling analysis; format: functional, cell-based; settings: Homo sapiens
HEK-293T [12] = assay: Downregulation of SLC25A3 expression in HEK293T cells at 100 uM incubated for 24 hrs by proteomic profiling analysis; format: functional, cell-based; settings: Homo sapiens
HEK-293T [13] = assay: Downregulation of DLST expression in HEK293T cells at 100 uM incubated for 24 hrs by proteomic profiling analysis; format: functional, cell-based; settings: Homo sapiens
HEK-293T [14] = assay: Downregulation of SQSTM1 expression in HEK293T cells at 100 uM incubated for 24 hrs by proteomic profiling analysis; format: functional, cell-based; settings: Homo sapiens
[15] = target: Microtubule-associated protein 1 light chain 3 beta (Homo sapiens, UniProt Q9GZQ8); assay: Binding affinity to LC3B in HEK293T cells overexpressing alpha-synuclein (unknown origin) at 50 to 100 uM incubated for 4 hrs by co-IP assay; format: cell-based; settings: dose 50-100 µM
[16] = Drug localization in HEK293T cells overexpressing mCherry-fused alpha-synuclein (unknown origin) assessed as puncta formation of alpha-synuclein at 50 uM incubated for 2 hrs by LyTG staining based confocal laser scanning microscopy; format: ADME, cell-based; settings: human, hek-293t
[17] = Drug localization in HEK293T cells overexpressing mCherry-fused alpha-synuclein (unknown origin) assessed as colocalization of autophagosomes at 50 uM incubated for 2 hrs by LyTG staining based confocal laser scanning microscopy; format: ADME, cell-based; settings: human, hek-293t
Alpha-synuclein [18] = target: T1, Alpha-synuclein; assay: Induction of alpha-synuclein (unknown origin) degradation overexpressed in HEK293T cells pretreated with BafA1 at 50 uM incubated for 24 hrs by immunoblot analysis; format: cell-based
SH-SY5Y [19] = assay: Cytoprotective activity in human SH-SY5Y cells transfected with alpha-synuclein (unknown origin) assessed as decrease in ROS level at 100 uM measured after 24 hrs by DCFH-DA staining based flow cytometry (reference value: 76 %); format: functional; set-up: scale not given: the % may be the effect or the level left
SH-SY5Y [20] = assay: Cytoprotective activity in human SH-SY5Y cells transfected with alpha-synuclein (unknown origin) assessed as cell viability at 50 uM by CCK8 assay relative to control; format: functional; settings: read-out: Activity
SH-SY5Y [21] = assay: Cytoprotective activity in human SH-SY5Y cells transfected with alpha-synuclein (unknown origin) assessed as cell viability at 100 uM by CCK8 assay relative to control; format: functional; settings: read-out: Activity
SH-SY5Y [22] = assay: Cytoprotective activity against CCCP-induced cytotoxicity in human SH-SY5Y cells assessed as cell viability at 100 uM by CCK8 assay; format: functional, cell-based
Mus musculus [23] = assay: Downregulation of alpha-synuclein level in substantia nigra pars compacta of MPTP-treated C57BL/6 mouse at 50 mg/kg/day, iv treated for 5 days by immunoblot analysis; format: functional, organism-based; settings: time 5.0 day
Mus musculus [24] = assay: Neuroprotective activity in MPTP-treated C57BL/6 mouse assessed as increase in dopaminergic neurons of substantia nigra pars compacta at 50 mg/kg/day, iv treated for 5 days by immunofluorescent staining of tyrosine hydroxylase based microscopy; format: functional, organism-based; settings: time 5.0 day
Mus musculus [25] = assay: Downregulation of phosphorylated alpha-synuclein at S129 residue level in substantia nigra pars compacta of MPTP-treated C57BL/6 mouse at 50 mg/kg/day, iv treated for 5 days by IHC analysis; format: functional, organism-based; settings: time 5.0 day
Mus musculus [26] = assay: Downregulation of phosphorylated alpha-synuclein at S129 residue level in substantia nigra pars compacta of MPTP-treated C57BL/6 mouse at 50 mg/kg/day, iv treated for 5 days by immunoblot analysis; format: functional, organism-based; settings: time 5.0 day
Mus musculus [27] = assay: Downregulation of phosphorylated alpha-synuclein at S129 residue level in substantia nigra pars compacta of MPTP-treated C57BL/6 mouse at 50 mg/kg/day, iv treated for 5 days by dot blot analysis; format: functional, organism-based; settings: time 5.0 day
Mus musculus [28] = assay: Downregulation of total aggregated protein level in substantia nigra pars compacta of MPTP-treated C57BL/6 mouse at 50 mg/kg/day, iv treated for 5 days by ThS staining based analysis; format: functional, organism-based; settings: time 5.0 day
Mus musculus [29] = assay: Neuroprotective activity in MPTP-induced anxiety-like status in C57BL/6 mouse assessed as increase in time spent in zone centers of mouse track at 50 mg/kg/day, iv treated for 5 days measured after 4 days by open field test; format: functional, organism-based; settings: time 9.0 day
Mus musculus [30] = assay: Neuroprotective activity in MPTP-induced cognitive impairment in C57BL/6 mouse assessed as decrease in mean speed in navigation trial phase at 50 mg/kg/day, iv treated for 5 days measured after 5 to 8 days days by morris water maze test; format: functional, organism-based; settings: time 10-13 day
[31] = Toxicity in C57BL/6 mouse assessed as body weight loss at 50 to 200 mg/kg/day treated for 5 days; format: organism-based; settings: in vivo, 120 h, dose 50-200 mg/kg/day, time 5 day
[32] = Toxicity in C57BL/6 mouse assessed as reduction in ALT level at 200 mg/kg/day treated for 5 days; format: organism-based; settings: in vivo, 120 h, time 5 day
[33] = Toxicity in C57BL/6 mouse assessed as change in uric acid level at 50 to 200 mg/kg/day treated for 5 days; format: organism-based; settings: in vivo, 120 h, dose 50-200 mg/kg/day, time 5 day
[34] = Toxicity in C57BL/6 mouse assessed as change in creatinine level at 50 to 200 mg/kg/day treated for 5 days; format: organism-based; settings: in vivo, 120 h, dose 50-200 mg/kg/day, time 5 day
[35] = Toxicity in C57BL/6 mouse assessed as change in creatine kinase level at 50 to 200 mg/kg/day treated for 5 days; format: organism-based; settings: in vivo, 120 h, dose 50-200 mg/kg/day, time 5 day
[36] = Toxicity in C57BL/6 mouse assessed as histological change in heart at 50 to 200 mg/kg/day treated for 5 days by H and E staining based analysis; format: organism-based; settings: in vivo, 120 h, dose 50-200 mg/kg/day, time 5 day

CC(C)C[C@H](NC(=O)[C@H](Cc1c[nH]cn1)NC(=O)[C@@H](NC(=O)[C@H](Cc1c[nH]c2ccccc12)NC(=O)[C@H](CC(=O)O)NC(=O)[C@H](CC(=O)O)NC(=O)[C@H](CC(=O)O)NC(=O)CNC(=O)CNC(=O)[C@H](CO)NC(=O)[C@H](CO)NC(=O)CNC(=O)[C@H](CO)NC(=O)CNC(=O)[C@H](CCCNC(=N)N)NC(=O)[C@@H](NC(=O)[C@H](CCCCN)NC(=O)[C@H](CO)NC(=O)CNC(=O)[C@@H](NC(=O)[C@H](Cc1ccc(O)cc1)NC(=O)[C@H](CC(C)C)NC(=O)[C@@H](NC(=O)CN)C(C)C)C(C)C)[C@H](C)O)[C@@H](C)O)C(=O)N[C@@H](CO)C(=O)N[C@@H](CO)C(=O)N[C@@H](Cc1ccc(O)cc1)C(=O)NCC(=O)N[C@@H](CCCNC(=N)N)C(=O)N[C@@H](CCCCN)C(=O)N[C@@H](CCCCN)C(=O)N[C@@H](CCCNC(=N)N)C(=O)N[C@@H](CCCNC(=N)N)C(=O)N[C@@H](CCC(N)=O)C(=O)N[C@@H](CCCNC(=N)N)C(=O)N[C@@H](CCCNC(=N)N)C(=O)N[C@@H](CCCNC(=N)N)C(=O)O
Activity (Alpha-synuclein [1]): Active
Stability [2]: Stable
Activity (HEK-293T [3]): Non-Toxic
DC50 (Alpha-synuclein [4]): 46.8 µM
Activity (Alpha-synuclein [4]; dose <= 200.0 µM): Dose-Dependent Effect
Activity (HEK-293T [5]): Active
Activity (HEK-293T [6]): Active
Activity (HEK-293T [7]): Active
Activity (HEK-293T [8]): Active
Activity (HEK-293T [9]): Active
Activity (HEK-293T [10]): Active
Activity (HEK-293T [11]): Active
Activity (HEK-293T [12]): Active
Activity (HEK-293T [13]): Active
Activity (HEK-293T [14]): Active
Activity [15]: Active
Drug uptake [16]: Active
Drug uptake [17]: Active
Activity (Alpha-synuclein [18]): inactive
Activity (SH-SY5Y [19]): 26.7%
viability at 50 µM (SH-SY5Y [20]): 91.8%
viability at 100 µM (SH-SY5Y [21]): 94.9%
Activity (SH-SY5Y [22]): inactive
Activity (Mus musculus [23]): Active
Activity (Mus musculus [24]): Active
Activity (Mus musculus [25]): Active
Activity (Mus musculus [26]): Active
Activity (Mus musculus [27]): Active
Activity (Mus musculus [28]): Active
Activity (Mus musculus [29]): Active
Activity (Mus musculus [30]): Active
Activity [31]: Non-Toxic
Activity [32]: Toxic
Activity [33]: Non-Toxic
Activity [34]: Non-Toxic
Activity [35]: Non-Toxic
Activity [36]: Non-Toxic
